Consider 2 compounds from ChEMBL document CHEMBL1782021, “Synthesis of 2-aziridinyl phosphonates by modified Gabriel-Cromwell reaction and their antibacterial activities” (2011).

What all share (format): functional
The subject of one test is Brevundimonas. In words: Antibacterial activity against Brevundimonas sp. isolate Fs30 at 10 ug/disk after 24 hrs by disc diffusion assay. The note with it: isolate Fs30, 24 h, read-out: DIZ.
A further test concerns Escherichia coli. Kind of test: Antibacterial activity against Escherichia coli DH5[alpha] at 10 ug/disk after 24 hrs by disc diffusion assay. The note with it: read-out: DIZ. In general terms: Agar diffusion results depend on both activity and mobility in agar.
A further test has as its system Kocuria. In words: Antibacterial activity against Kocuria sp. isolate Fs24 at 10 ug/disk after 24 hrs by disc diffusion assay. The note with it: isolate Fs24, 24 h, read-out: DIZ.
The next test has as its system Bacillus subtilis. Kind of test: Antibacterial activity against Bacillus subtilis assessed as diameter of zone of inhibition at 10 ug/disk after 24 hrs by disc diffusion assay. To be noted: read-out: DIZ.
Another test concerns Gordonia sp. Kind of test: Antibacterial activity against Gordonia sp. isolate Fs48 at 10 ug/disk after 24 hrs by disc diffusion assay. The note with it: Gordonia sp. (in: high G+C Gram-positive bacteria), isolate Fs48, 24 h; read-out: DIZ.

For the compound `CC1(C)S[C@@H]2[C@H](NC(=O)[C@H](N)c3ccccc3)C(=O)N2[C@H]1C(=O)O` [AMPICILLIN], the zone of inhibition at 10 µg/disc in the test on Brevundimonas was determined as 10.7 mm; in the test on Escherichia coli, 16.7 mm; in the test with Kocuria, 47.7 mm; in the test on Bacillus subtilis, 17.3 mm.

Regarding `CN[C@@H]1[C@H](O[C@H]2[C@H](O[C@H]3[C@H](O)[C@@H](O)[C@H](N=C(N)N)[C@@H](O)[C@@H]3N=C(N)N)O[C@@H](C)[C@]2(O)C=O)O[C@@H](CO)[C@H](O)[C@H]1O` [STREPTOMYCIN], the zone of inhibition at 10 µg/disc in the test on Brevundimonas turned out to be 29.3 mm; in the test with Gordonia sp. it was 29 mm; in the test on Escherichia coli, 19.7 mm; in the test with Kocuria it was 26 mm; in the test on Bacillus subtilis it was 14 mm.
